According to patent US4361553A, “Therapeutic uses of dynorphin” (Regents of the University of California, priority 1981, dated 1982):

What was measured:
morphine tolerant mice [1] = experiment: Tail-flick analgesia, β-endorphin i.c.v. with or without dynorphin-(1-13) i.c.v., morphine tolerant group (Example II); assay type: in vivo; settings: for ED50 of β-endorphin: i.c.v.
Protocol: (§1) Male simonesen ICR mice (Gilroy, CA) weighing between 20-25 g were housed for at least one day prior to experimentation, and used within 5 days. Each mouse was used only once.
(§2) Analgesia was measured by the tail-flick method of D'Amour and Smith, J.Pharmac.Exp.Ther., 72, pp. 74-79 (1941), incorporated herein by reference, as modified by Tulunay and Takemori, J.Pharmac.Exp.Ther., 190, pp. 395-400 (1974), incorporated herein by reference. […] Nonresponding animals were removed from the heat stimulus when reaction times exceeded 10 sec. to avoid the tail damage.
(§3) Drugs were injected 30 min prior to testing, unless otherwise indicated.
(§4) The animals were separated into two groups.
(§5) The ED50 values, their 95% confidence limits and significance of the potency ratio between two ED50 values were determined by the method of Litchfield and Wilcoxon, J.Pharmacol.Exp.Ther, 96:99-113 (1949), incorporated herein by reference.

naive mice = experiment: Tail-flick analgesia, morphine s.c. with or without dynorphin-(1-13) i.c.v., naive group (Example III); assay type: in vivo
Protocol: as §1, §2, §3, §4, §5

[2] = Addictiveness compared with morphine; assay type: in vivo
morphine tolerant mice [3] = experiment: Tail-flick analgesia, morphine s.c. with or without dynorphin-(1-13) i.c.v., morphine tolerant group (Example I); assay type: in vivo; settings: dynorphin alone up to 50 μg/mouse
Protocol: as §1, §2, §3, §4, §5

morphine dependent mice = experiment: Spontaneous withdrawal jumping after removal of morphine pellets (Example IV); assay type: in vivo; settings: compared with saline
Protocol: Mice which jumped were separated and received 4 μl of saline i.c.v. or different doses of dynorphin, and tested 30 min and then 60 min after injection.

guinea pig ileum = settings: cited from earlier work
mouse vas deferens = settings: cited from earlier work

Molecule: β-endorphin
- ED50 of β-endorphin (morphine tolerant mice [1]; in the presence of 10 μg dynorphin-(1-13)): about 1.00 μg/mouse
- ED50 of β-endorphin (morphine tolerant mice [1]; in the presence of 20 μg dynorphin-(1-13)): about 0.55 μg/mouse
- Analgesia (%) (morphine tolerant mice [1]; β-endorphin 1 μg/mouse i.c.v. alone): 10%
- Analgesia (%) (morphine tolerant mice [1]; β-endorphin 2 μg/mouse i.c.v. alone): 40%
- Analgesia (%) (morphine tolerant mice [1]; β-endorphin 6 μg/mouse i.c.v. alone): 100%

Molecule: CN1CC[C@]23c4c5ccc(O)c4O[C@H]2[C@@H](O)C=C[C@H]3[C@H]1C5.O=S(=O)(O)O [Morphine, morphine sulfate]
- Analgesia (%) (naive mice; morphine 2 mg/kg s.c. alone): 10%
- Analgesia (%) (naive mice; morphine 4 mg/kg s.c. alone): 30%
- Analgesia (%) (naive mice; morphine 7.5 mg/kg s.c. alone): 80%

Molecule: CC[C@H](C)[C@H](NC(=O)[C@H](CCCNC(=N)N)NC(=O)[C@H](CCCNC(=N)N)NC(=O)[C@H](CC(C)C)NC(=O)[C@H](Cc1ccccc1)NC(=O)CNC(=O)CNC(=O)[C@@H](N)Cc1ccc(O)cc1)C(=O)N[C@@H](CCCNC(=N)N)C(=O)N1CCC[C@H]1C(=O)N[C@@H](CCCCN)C(=O)N[C@@H](CC(C)C)C(=O)N[C@@H](CCCCN)C(=O)O [dynorphin-(1-13)]
- Times less addictive than morphine [2]: at least 100 times

Molecule: dynorphin
- Own analgesic potency (morphine tolerant mice [3]): no analgesic potency
- Effect on withdrawal (morphine dependent mice): significantly reduced, or repressed, withdrawal
- Agonist properties in guinea pig ileum (guinea pig ileum): potent agonist properties
- Agonist properties in mouse vas deferens (mouse vas deferens): potent agonist properties
